Seven compounds from patent US9302999B2, “Substituted triazoles as herbicides” (E. I. DU PONT DE NEMOURS AND COMPANY, priority 2012, dated 2016) can be followed below.

Holding throughout (format): in vivo
The test system of experiment [1] is dayflower, VA (Virginia (VA) dayflower, Commelina virginica). Kind of experiment: Test F pre-/postemergence: dayflower, VA. The source says:
(§1) Seeds of plant species selected from corn (Zea mays), soybean (Glycine max), velvetleaf (Abutilon theophrasti), lambsquarters (Chenopodium album), poinsettia, wild (wild poinsettia, Euphorbia heterophylla), pigweed, palmer (palmer pigweed, Amaranthus palmeri), waterhemp (common waterhemp, Amaranthus rudis), surinam grass (Brachiaria decumbens), crabgrass, Brazil (Brazilian crabgrass, Digitaria horizontalis), panicum, fall (fall panicum Panicum dichotomiflorum), crabgrass, large (large crabgrass, Digitaria sanguinalis), foxtail, giant (giant foxtail, Setaria faberii), foxtail, green (green foxtail Setaria viridis), goosegrass (Eleusine indica), ragweed (common ragweed, Ambrosia elatior), barnyardgrass (Echinochloa crus-galli), sandbur (southern sandbur, Cenchrus echinatus), arrowleaf sida (Sida rhombifolia), ryegrass, Italian (Italian ryegrass, Lolium multiflorum), dayflower, VA (Virginia (VA) dayflower, Commelina virginica), field bindweed (Convolvulus arvensis), cocklebur (common cocklebur, Xanthium strumarium), morningglory (Ipomoea coccinea), nightshade (eastern black nightshade, Solanum ptycanthum), kochia (Kochia scoparia), nutsedge, yellow (yellow nutsedge, Cyperus esculentus), johnsongrass (Sorghum halepense), smartweed (ladysthumb smartweed, Polygonum persicaria), and beggarticks (hairy beggarticks, Bidens pilosa), were planted into a silt loam soil and treated preemergence with test chemicals formulated in a non-phytotoxic solvent mixture which included a surfactant. At the same time, plants selected from these crop and weed species and also pigweed (Amaranthus retroflexus), waterhemp_RES1 (ALS/Triazine resistant common waterhemp, Amaranthus rudis) and waterhemp_RES2 (ALS/HPPD resistant common waterhemp, Amaranthus rudis) were planted in pots containing a planting medium comprising spaghnum peat moss, vermiculite, wetting agent and starter nutrients treated with postemergence applications of some of the test chemicals formulated in the same manner. Plants ranged in height from 2 to 18 cm for postemergence treatments (1- to 4-leaf stage).
(§2) Treated plants and controls were maintained in a greenhouse for 14 to 21 days, after which time all species were compared to controls and visually evaluated. Plant response ratings, summarized in Table E, are based on a scale of 0 to 100 where 0 is no effect and 100 is complete control. A dash (-) response means no test result.

The subject of experiment [2] is arrowleaf sida (Sida rhombifolia). Put plainly: Test F pre-/postemergence: arrowleaf sida.
Description: as §1, §2

The subject of experiment [3] is oat, wild (wild oat, Avena fatua). Kind of experiment: Test D pre-/postemergence: oat, wild. The source says:
Seeds of plant species selected from bluegrass (annual bluegrass, Poa annua), blackgrass (Alopecurus myosuroides), canarygrass (Phalaris minor), chickweed (common chickweed, Stellaria media), galium (catchweed bedstraw, Galium aparine), bromegrass, downy (downy bromegrass, Bromus tectorum), field poppy (Papaver rhoeas), field violet (Viola arvensis), foxtail, green (green foxtail, Setaria viridis), deadnettle (henbit deadnettle, Lamium amplexicaule), ryegrass, Italian (Italian ryegrass, Lolium multiflorum), kochia (Kochia scoparia), lambsquarters (Chenopodium album), oilseed rape (Brassica napus), pigweed (Amaranthus retroflexus), Russian thistle (Salsola iberica), chamomile (scentless chamomile, Matricaria inodora), speedwell (bird's-eye speedwell, Veronica persica), barley, spring (spring barley, Hordeum vulgare), wheat, spring (spring wheat, Triticum aestivum), buckwheat, wild (wild buckwheat, Polygonum convolvulus), mustard, wild (wild mustard, Sinapis arvensis), oat, wild (wild oat, Avena fatua), radish, wild (wild radish, Raphanus raphanistrum), windgrass (Apera spica-venti), barley, winter (winter barley, Hordeum vulgare), and wheat, winter (winter wheat, Triticum aestivum) were planted into a silt loam soil and treated preemergence with test chemicals formulated in a non-phytotoxic solvent mixture which included a surfactant. At the same time, these same crop and weed species were planted in pots containing the planting medium comprising spaghnum peat moss, vermiculite, wetting agent and starter nutrients and treated with postemergence applications of the test chemicals formulated in the same manner. Plants ranged in height from 2 to 18 cm (1- to 4-leaf stage).
Treated plants and controls were maintained in a controlled growth environment for 14 to 21 days after which time all species were compared to controls and visually evaluated. Plant response ratings, summarized in Table D, are based on a scale of 0 to 100 where 0 is no effect and 100 is complete control. A dash (-) response means no test result.

In experiment [4] the test system is chickweed (common chickweed, Stellaria media). Kind of experiment: Test D pre-/postemergence: chickweed. The method in brief: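 Applied as a non-phytotoxic solvent formulation with surfactant, compounds were tested preemergence in silt loam and postemergence on seedlings 2 to 18 cm high in peat-vermiculite medium. Evaluation was visual, 0 meaning no effect and 100 complete control, at 14 to 21 days.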

Experiment [5] has as its system sedge, umbrella (small-flower umbrella sedge, Cyperus difformis). Kind of experiment: Test C flooded paddy test: sedge, umbrella. The note with it: scale 0 to 100 (0 no effect, 100 complete control). The method in brief:
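Greenhouse plants treated at the 2-leaf stage by dosing the flood water (3 cm depth, maintained) were compared with controls after 13 to 15 days and rated 0 to 100, where 100 means complete control; a dash marks no test result.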

The mark [6] stands for this setting: Preemergence, 16 g ai/ha, scale 0 to 100, 0 no effect, 100 complete control.
Setting [7] is: Preemergence, 31 g ai/ha, scale 0 to 100, 0 no effect, 100 complete control.
The mark [8] stands for this setting: Preemergence, 62 g ai/ha, scale 0 to 100.
[9] abbreviates: Preemergence, 125 g ai/ha, scale 0 to 100.
Where [10] appears, read: Preemergence, 250 g ai/ha, scale 0 to 100.
Setting [11] is: Postemergence, 8 g ai/ha, scale 0 to 100.
Where [12] appears, read: Postemergence, 16 g ai/ha, scale 0 to 100.
Setting [13] is: Postemergence, 31 g ai/ha, scale 0 to 100.
Where [14] appears, read: Postemergence, 62 g ai/ha, scale 0 to 100.
[15] abbreviates: Postemergence, 125 g ai/ha, scale 0 to 100.
[16] abbreviates: Postemergence, 250 g ai/ha, scale 0 to 100.
The mark [17] stands for this setting: Postemergence, 31 g ai/ha, scale 0 to 100 (0 no effect, 100 complete control).
The mark [18] stands for this setting: Postemergence, 62 g ai/ha, scale 0 to 100 (0 no effect, 100 complete control).
Where [19] appears, read: Postemergence, 125 g ai/ha, scale 0 to 100, 0 no effect, 100 complete control.
Where [20] appears, read: Postemergence, 250 g ai/ha, scale 0 to 100 (0 no effect, 100 complete control).

In the case of `Cc1nn(-c2ccc(F)cc2F)nc1Oc1ccnc(C(F)(F)F)c1` [Compound 146], the “Plant response rating, Dayflower, VA” value in experiment [1] (setting [6]) was determined as 0; in experiment [1] (setting [7]), 0; in experiment [1] (setting [8]), 10; in experiment [1] (setting [9]), 35; in experiment [1] (setting [10]), 35. Besides, the “Plant response rating, Arrowleaf Sida” value in experiment [2] (setting [6]) amounted to 0; in experiment [2] (setting [7]) it was 0; in experiment [2] (setting [8]), 0; in experiment [2] (setting [9]), 0; in experiment [2] (setting [10]), 10.

`COc1nn(-c2cccc(F)c2)nc1Cc1ccnc(C(F)(F)F)c1` [Compound 139]: the “Plant response rating, Dayflower, VA” value stood at 0 in experiment [1] (setting [6]); 5 in experiment [1] (setting [7]); 30 in experiment [1] (setting [8]); 60 in experiment [1] (setting [9]); 65 in experiment [1] (setting [10]). In addition, the “Plant response rating, Arrowleaf Sida” value in experiment [2] (setting [6]), in experiment [2] (setting [7]), in experiment [2] (setting [8]), in experiment [2] (setting [9]) and in experiment [2] (setting [10]) was 0 each time.

As to `Cc1nn(-c2ccnc(Cl)c2)nc1Cc1ccnc(C(F)(F)F)c1` [Compound 141], the “Plant response rating, Dayflower, VA” value in experiment [1] (setting [11]) worked out at 10; in experiment [1] (setting [12]), 10; in experiment [1] (setting [13]), 35; in experiment [1] (setting [14]) it was 60; in experiment [1] (setting [15]), 75. For the same compound, the “Plant response rating, Arrowleaf Sida” value in experiment [2] (setting [11]) amounted to 40; in experiment [2] (setting [12]) it was 50; in experiment [2] (setting [13]) it was 60; in experiment [2] (setting [14]), 70; in experiment [2] (setting [15]), 75.

As for `CCc1nn(-c2ccc(F)c(F)c2)nc1Oc1ccnc(C(F)(F)F)c1` [Compound 171], the “Plant response rating, Dayflower, VA” value in experiment [1] (setting [6]) came out at 0; in experiment [1] (setting [7]), 0; in experiment [1] (setting [8]) it was 0; in experiment [1] (setting [9]) it was 30; in experiment [1] (setting [10]) it was 30. In addition, the “Plant response rating, Arrowleaf Sida” value in experiment [2] (setting [6]) is on record as 0; in experiment [2] (setting [7]) it was 0; in experiment [2] (setting [8]) it was 15; in experiment [2] (setting [9]), 30; in experiment [2] (setting [10]), 60.

For the compound `CCCc1nn(-c2ccc(F)c(F)c2)nc1Oc1ccnc(C(F)(F)F)c1` [Compound 172], the “Plant response rating, Dayflower, VA” value came to 50 in experiment [1] (setting [16]); 20 in experiment [1] (setting [13]); 30 in experiment [1] (setting [15]); 40 in experiment [1] (setting [7]); 70 in experiment [1] (setting [9]); 90 in experiment [1] (setting [10]). Also, the “Plant response rating, Arrowleaf Sida” value in experiment [2] (setting [16]) amounted to 100; in experiment [2] (setting [13]), 65; in experiment [2] (setting [15]) it was 90; in experiment [2] (setting [7]), 30; in experiment [2] (setting [9]) it was 95; in experiment [2] (setting [10]), 100.

On to `CCc1nn(-c2ccc(F)cc2)nc1Cc1ccnc(C(F)(F)F)c1` [Compound 154], for which the “Plant response rating, Dayflower, VA” value in experiment [1] (setting [6]) turned out to be 0; in experiment [1] (setting [7]) it was 0; in experiment [1] (setting [8]), 25; in experiment [1] (setting [9]), 70; in experiment [1] (setting [10]) it was 90. Besides, the “Plant response rating, Arrowleaf Sida” value in experiment [2] (setting [6]), in experiment [2] (setting [7]), in experiment [2] (setting [8]), in experiment [2] (setting [9]) and in experiment [2] (setting [10]) was 0 each time.

On to `Cc1nn(-c2ccc(C(F)(F)F)cc2)nc1Oc1ccnc(C(F)(F)F)c1` [Compound 120], for which the “Plant response rating: Oat, Wild” value in experiment [3] (setting [17]) was found to be 10; in experiment [3] (setting [18]) it was 20; in experiment [3] (setting [19]) it was 35; in experiment [3] (setting [20]), 70. Further, the “Plant response rating, Oat, Wild” value in experiment [3] (setting [12]) is given as 10; in experiment [3] (setting [6]), 0; in experiment [3] (setting [7]) it was 5; in experiment [3] (setting [8]), 25; in experiment [3] (setting [9]) it was 55; in experiment [3] (setting [10]), 100. In addition, the “Plant response rating: Chickweed” value turned out to be 85 in experiment [4] (setting [17]), 98 in experiment [4] (setting [18]), 100 in experiment [4] (setting [19]) and 100 in experiment [4] (setting [20]). Further, the “Plant response rating, Chickweed” value in experiment [4] (setting [12]) was found to be 75; in experiment [4] (setting [6]), 20; in experiment [4] (setting [7]), 90; in experiment [4] (setting [8]), 90; in experiment [4] (setting [9]), 100; in experiment [4] (setting [10]) it was 100. Further, the “Plant response rating, Sedge, Umbrella” value is given as 90 in experiment [5] (Flood (flooded paddy test), 125 g ai/ha, visual rating after 13 to 15 days); 90 in experiment [5] (Flood (flooded paddy test), 250 g ai/ha, visual rating after 13 to 15 days); 85 in experiment [5] (Flood, 62 g ai/ha).
